Test results reported in patent EP0066373A1, “Beta-lactam derivatives, a process for their preparation and compositions containing them” (BEECHAM GROUP PLC, priority 1981, dated 1982).

Assays:
Format in all cases: cell-based
[1] = system: E. coli ESS; assay: Antibacterial activity (MIC); details: Escherichia coli, Agar
[2] = system: E. cloacae N1; assay: Antibacterial activity (MIC); details: Enterobacter cloacae, Agar
[3] = system: Ps. aeurginosa NCTC 10662; assay: Antibacterial activity (MIC)
[4] = system: E. coli NCTC 10418; assay: Antibacterial activity (MIC); details: Escherichia coli
[5] = system: E. coli JT 4; assay: Antibacterial activity (MIC); details: Escherichia coli, JT4, Agar
[6] = system: Ps. aeruginosa Dalgleish 10^-2; assay: Antibacterial activity (MIC), 10^-2; details: Pseudomonas aeruginosa, Agar
[7] = system: P. mirabilis C 977; assay: Antibacterial activity (MIC); details: Proteus mirabilis, C977, Agar
[8] = system: E. coli JT 425; assay: Antibacterial activity (MIC); details: Escherichia coli, JT425, Agar
[9] = system: S. marcescens US 32; assay: Antibacterial activity (MIC); details: Serratia marcescens, US32, Agar
[10] = system: K. aerogenes A; assay: Antibacterial activity (MIC); details: Klebsiella aerogenes
[11] = system: Ps. aeruginosa NCTC 10662 10^-2; assay: Antibacterial activity (MIC), 10^-2; details: Pseudomonas aeruginosa

| Structure (SMILES) | MIC [1] | MIC [2] | MIC ([3]; Agar) | MIC ([4]; NCTC10418, Agar) | MIC [5] | MIC [6] | MIC [7] | MIC [8] | MIC [9] | MIC ([10]; Agar) | MIC ([11]; NCTC10662, Agar) | MIC ([3]; Broth) | MIC ([4]; NCTC10418, Broth) | MIC ([10]; Broth) | MIC ([11]; NCTC10662, Broth) |
| --- | --- | --- | --- | --- | --- | --- | --- | --- | --- | --- | --- | --- | --- | --- | --- |
| CO[C@@]1(NC(=O)C(c2ccc(O)c(O)c2)S(=O)(=O)O)C(=O)N2[C@@H](C(=O)O)C(C)(C)S[C@@H]21 (stereo partly drawn) [Example 4, Disodium 6,β-[R,S-2-(3,4-dihydroxyphenyl)-2-sulphoacetamido]-6,a-methoxypenicillanate] | 0.5 µg/mL | 50 µg/mL | 2.5 µg/mL | 5 µg/mL | 5 µg/mL | 2.5 µg/mL | 25 µg/mL | 5 µg/mL | 25 µg/mL | 5 µg/mL | 5 µg/mL |  |  |  |  |
| CO[C@@]1(NC(=O)C(c2ccc(OC(C)=O)c(OC(C)=O)c2)S(=O)(=O)O)C(=O)N2[C@@H](C(=O)O)C(C)(C)S[C@@H]21 (stereo partly drawn) [Example 3, Disodium 6,β-[R,S-2-(3,4-diacetoxyphenyl)-2-sulphoacetamido]-6,a-methoxypenicillanate] | 0.2 µg/mL | 50 µg/mL | 2.5 µg/mL | 2.5 µg/mL | 2.5 µg/mL | 2.5 µg/mL | 25 µg/mL | 2.5 µg/mL | 25 µg/mL | 10 µg/mL | 2.5 µg/mL | 5 µg/mL | 5 µg/mL | 25 µg/mL | 5 µg/mL |
| CO[C@@]1(NC(=O)[C@@H](c2ccc(O)c(O)c2)S(=O)(=O)O)C(=O)N2[C@@H](C(=O)O)C(C)(C)S[C@@H]21 [Example 9, Disodium 6,β-[R-2-(3,4-dihydroxyphenyl)-2-sulphoacetamido] -6,a-methoxypenicillanate] | 0.1 µg/mL | 50 µg/mL | 2.5 µg/mL | 2.5 µg/mL | 2.5 µg/mL | 0.5 µg/mL | 25 µg/mL | 1 µg/mL | 25 µg/mL | 5 µg/mL | 0.5 µg/mL |  |  |  |  |
| CO[C@@]1(NC(=O)[C@@H](c2ccc(OC(C)=O)c(OC(C)=O)c2)S(=O)(=O)O)C(=O)N2[C@@H](C(=O)O)C(C)(C)S[C@@H]21 [Example 8, Disodium 6,β-[R-2-(3,4-diacetoxyphenyl)-2-sulphoacetamido]-6,a-methoxypenicillanate] | 0.2 µg/mL | 25 µg/mL | 2.5 µg/mL | 2.5 µg/mL | 2.5 µg/mL | 0.5 µg/mL | 10 µg/mL | 1 µg/mL | 25 µg/mL | 5 µg/mL | 0.5 µg/mL | 1 µg/mL | 5 µg/mL | 10 µg/mL | 0.5 µg/mL |
